From ChEMBL document CHEMBL4052794, “Design, synthesis, docking and biological evaluation of 4-phenyl-thiazole derivatives as autotaxin (ATX) inhibitors” (Bioorg Med Chem Lett, 2017)
pIC50: −log10 of the molar value.

The compounds below were run against T1, Autotaxin (Homo sapiens, UniProt Q13822) (assay: Inhibition of ATX in human plasma using LPC as substrate pretreated for 15 mins followed by substrate addition measured after 3 hrs by LC-MS/MS analysis).

Question: `CS(=O)(=O)Nc1ccc(-c2csc(C(=O)NC3CCN(C(=O)OCc4cc(Cl)cc(Cl)c4)CC3)n2)cc1` was tested. Which pIC50 did it give?
Answer: Its pIC50 is 6.13.

Question: `O=C(NC1CCN(C(=O)OCc2cc(Cl)cc(Cl)c2)CC1)c1nc(-c2ccc(CP(=O)(O)O)cc2)cs1` was tested. Which pIC50 did it give?
Answer: The pIC50 was 7.82.

The compounds below were run against T1, Autotaxin (assay: Inhibition of human ATX using FS-3 as substrate measured every 5 mins for 30 mins by fluorescence assay).

Question: With `NS(=O)(=O)c1cc(-c2csc(C(=O)NCc3ccc(Cl)cc3)n2)ccc1Cl` as the compound, how does the pIC50 read?
Answer: The pIC50 was 5.68.

Question: `O=C(OCc1ccccc1)N1CCC(Nc2nc(-c3ccc(CP(=O)(O)O)cc3)cs2)C1` (configuration not stated) was tested. Which pIC50 did it give?
Answer: The pIC50 was 7.99.

Question: With `CS(=O)(=O)Nc1ccc(-c2csc(C(=O)NC3CCN(C(=O)OCc4cc(Cl)cc(Cl)c4)CC3)n2)cc1` as the compound, how does the pIC50 read?
Answer: The pIC50 was 8.52.

Question: `NC(=O)c1cc(-c2csc(NC3CCN(C(=O)OCc4ccccc4)C3)n2)ccc1O` (configuration not stated) was tested. Which pIC50 did it give?
Answer: The pIC50 was 5.35.

Question: How did the pIC50 turn out when `O=C(OCc1ccccc1)N1CCC(Nc2nc(-c3ccc(CP(=O)(O)O)cc3)cs2)CC1` was run?
Answer: Its pIC50 is 7.12.

Question: How did the pIC50 turn out when `CN(c1ccc(S(N)(=O)=O)cc1)c1nc(-c2ccc(O)c(CO)c2)cs1` was run?
Answer: Its pIC50 is 5.24.

Question: `O=C(OCc1ccccc1)N1CCC(Nc2nc(-c3ccc(O)c(O)c3)cs2)C1` (configuration not stated) was tested. Which pIC50 did it give?
Answer: Its pIC50 is 5.91.

Question: With `NS(=O)(=O)c1cc(-c2csc(C(=O)Nc3cccc(C(=O)O)c3)n2)ccc1Cl` as the compound, how does the pIC50 read?
Answer: Its pIC50 is 4.98.

Question: `NS(=O)(=O)c1cc(-c2csc(NC3CCN(C(=O)OCc4ccccc4)CC3)n2)ccc1Cl` was tested. Which pIC50 did it give?
Answer: Its pIC50 is 5.89.

Question: With `NS(=O)(=O)c1cc(-c2csc(C(=O)NC3CCN(C(=O)OCc4ccccc4)CC3)n2)ccc1Cl` as the compound, how does the pIC50 read?
Answer: Its pIC50 is 6.30.

Question: With `CS(=O)(=O)Nc1cccc(-c2csc(NC3CCN(C(=O)OCc4cc(Cl)cc(Cl)c4)CC3)n2)c1` as the compound, how does the pIC50 read?
Answer: Its pIC50 is less than 7.00.

Question: With `CN(c1ccc(S(N)(=O)=O)cc1)c1nc(-c2ccc(O)c(C(=O)O)c2)cs1` as the compound, how does the pIC50 read?
Answer: Its pIC50 is 4.98.

Question: `COc1ccc(-c2csc(C(=O)NC3CCN(C(=O)OCc4cc(Cl)cc(Cl)c4)CC3)n2)cc1` was tested. Which pIC50 did it give?
Answer: The pIC50 was 7.52.

Question: With `NS(=O)(=O)c1cc(-c2csc(NC3CCN(C(=O)OCc4ccccc4)C3)n2)ccc1Cl` (configuration not stated) as the compound, how does the pIC50 read?
Answer: The pIC50 was 5.87.

Question: How did the pIC50 turn out when `O=C(Cc1cccc(Nc2nc(-c3ccc(O)c(O)c3)cs2)c1)NCc1ccccc1` was run?
Answer: The pIC50 was 5.09.

Question: With `NS(=O)(=O)c1cc(-c2csc(C(=O)NC3CCN(C(=O)OCc4cc(Cl)cc(Cl)c4)CC3)n2)ccc1Cl` as the compound, how does the pIC50 read?
Answer: Its pIC50 is 8.35.

Question: `O=C(O)c1cc(-c2csc(NC3CCN(C(=O)OCc4ccccc4)C3)n2)ccc1O` (configuration not stated) was tested. Which pIC50 did it give?
Answer: The pIC50 was 4.96.

Question: `O=C(NC1CCN(C(=O)OCc2cc(Cl)cc(Cl)c2)CC1)c1nc(-c2ccc(CP(=O)(O)O)cc2)cs1` was tested. Which pIC50 did it give?
Answer: Its pIC50 is 8.66.

Question: How did the pIC50 turn out when `CN(c1ccc(S(N)(=O)=O)cc1)c1nc(-c2ccc(O)c(C(N)=O)c2)cs1` was run?
Answer: The pIC50 was 5.18.

Question: With `O=C(NC1CCN(C(=O)OCc2ccccc2)CC1)c1nc(-c2ccc(CP(=O)(O)O)cc2)cs1` as the compound, how does the pIC50 read?
Answer: The pIC50 was 7.86.

Question: With `O=C(Nc1cccc(Nc2nc(-c3ccc(O)c(O)c3)cs2)c1)OCc1ccccc1` as the compound, how does the pIC50 read?
Answer: The pIC50 was 5.03.

Question: With `CN(c1ccc2c(c1)CS(=O)(=O)N2)c1nc(-c2ccc(O)c(C(=O)O)c2)cs1` as the compound, how does the pIC50 read?
Answer: Its pIC50 is less than 5.00.

Question: How did the pIC50 turn out when `CS(=O)(=O)Nc1ccc(-c2csc(N(Cc3ccccn3)c3ccc4nn[nH]c4c3)n2)cc1` was run?
Answer: Its pIC50 is 5.59.

Question: With `O=C(NC1CCN(C(=O)OCc2cc(Cl)cc(Cl)c2)CC1)c1nc(-c2ccc(Cl)cc2)cs1` as the compound, how does the pIC50 read?
Answer: Its pIC50 is 7.20.

Question: `O=S(=O)(Cc1cccc(Nc2nc(-c3ccc(O)c(O)c3)cs2)c1)NCc1ccccc1` was tested. Which pIC50 did it give?
Answer: The pIC50 was 4.94.
